Experimental data: patent publication US8507502B2, “Fused bicyclic and tricyclic pyrimidine compounds as tyrosine kinase inhibitors” (National Health Research Institutes, priority 2008, dated 2013)
Like-named read-outs stand apart in the source and are kept apart here.

Tests used:
HCC827 cells = test: HCC827 cell viability, MTS assay; format: cell-based; conditions: Homo sapiens, 96-h incubation, read-out: IC50 (concentration which causes 50% of the cell death)
GST-EGFR-KD^WT = biological target: T1, GST-EGFR-KD^WT (Homo sapiens, UniProt P00533); test: EGFR kinase assay (Kinase-Glo); format: biochemical; conditions: 5 μM ATP, read-out: IC50 (concentration at which activity of 50% of EGFR is inhibited)
T1 construct: 50 ng GST-EGFR-KD^WT proteins; made in house
T1 sequence (P00533 712-979 limits assumed): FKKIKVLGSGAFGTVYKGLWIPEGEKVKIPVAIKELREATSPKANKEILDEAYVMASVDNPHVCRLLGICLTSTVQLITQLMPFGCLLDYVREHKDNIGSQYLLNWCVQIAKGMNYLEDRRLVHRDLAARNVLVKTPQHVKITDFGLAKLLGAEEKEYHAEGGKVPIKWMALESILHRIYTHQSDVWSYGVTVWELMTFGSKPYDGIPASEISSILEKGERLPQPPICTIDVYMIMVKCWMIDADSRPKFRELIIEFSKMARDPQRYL

GST-EGFR-KD^L858R/T790M = biological target: T2, GST-EGFR-KD^L858R/T790M (Homo sapiens, UniProt P00533, L858R/T790M); test: Double mutant EGFR kinase assay (Kinase-Glo); format: biochemical; conditions: 1 μM ATP, read-out: IC50 (concentration at which activity of 50% of mutant EGFR is inhibited)
T2 construct: residues from 696 to 1022 and with L858R/T790M; made in house; host or cells: Sf9 insect cells (baculovirus)
T2 sequence (P00533 696-1022 T790M/L858R): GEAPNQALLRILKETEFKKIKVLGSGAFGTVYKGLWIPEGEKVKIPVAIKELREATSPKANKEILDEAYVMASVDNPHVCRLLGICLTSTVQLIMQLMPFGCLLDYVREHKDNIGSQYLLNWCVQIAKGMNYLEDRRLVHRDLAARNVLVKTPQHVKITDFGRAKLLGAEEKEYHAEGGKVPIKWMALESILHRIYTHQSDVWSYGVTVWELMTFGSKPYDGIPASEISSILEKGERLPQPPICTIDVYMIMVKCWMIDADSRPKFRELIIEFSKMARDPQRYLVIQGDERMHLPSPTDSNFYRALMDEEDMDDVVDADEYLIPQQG

SMILES | IC50 (GST-EGFR-KD^WT; range given in mixed units) | IC50 (GST-EGFR-KD^WT) | IC50 (GST-EGFR-KD^L858R/T790M) | IC50 (HCC827 cells)
OC[C@@H](Nc1ncnc2sc3c(c12)CCCC3)c1ccccc1 [Compound 1, S-2-phenyl-2-(5,6,7,8-tetrahydro-benzo[4,5]thieno[2,3-d]pyrimidin-4-ylamino)-ethanol] | 101 to 900 nM | – | – | 100 to 300 nM
OC[C@@H](Nc1ncnc2sc3c(c12)CCC3)c1ccccc1 [Compound 3] | – | – | – | 301 to 999 nM
Cc1sc2ncnc(N[C@H](CO)c3ccccc3)c2c1C [Compound 4, (S)-2-(5,6-dimethylthieno[2,3-d]pyrimidin-4-ylamino)-2-phenylethanol] | – | – | – | 301 to 999 nM
OC[C@@H](Nc1ncnc2sc(-c3ccccc3)cc12)c1ccccc1 [Compound 7] | 101 to 900 nM | – | – | –
OC[C@@H](Nc1ncnc2sc(-c3ccccc3)c(Cl)c12)c1ccccc1 [Compound 8] | 101 to 900 nM | – | – | –
C=CC(=O)N1CCc2c(sc3ncnc(N[C@H](CO)c4ccccc4)c23)C1 [Compound 12, 1-[4-(2-hydroxy-1-phenyl-ethylamino)-5,8-dihydro-6H-9-thia-1,3,7-triaza-fluoren-7-yl]-propenone] | – | < 59 nM | 10 to 499 nM | 1 to 99 nM
C=CC(=O)N1CCc2c(sc3ncnc(N[C@H](CO[Si](C)(C)C(C)(C)C)c4ccccc4)c23)C1 [Compound 15] | 101 to 900 nM | – | – | 301 to 999 nM
O=C(O)[C@@H](Nc1ncnc2sc3c(c12)CCCC3)c1ccccc1 [Compound 18] | 101 to 900 nM | – | – | –
O=C(O)[C@@H](Nc1ncnc2sc3c(c12)CCC3)c1ccccc1 [Compound 20] | 101 to 900 nM | – | – | –
O=C(O)[C@@H](Nc1ncnc2sc(-c3ccccc3)cc12)c1ccccc1 [Compound 22] | 101 to 900 nM | – | – | –
CC[C@@H](Nc1ncnc2sc3c(c12)CCCC3)c1ccccc1 [Compound 23] | 101 to 900 nM | – | – | 301 to 999 nM
OC[C@@H](Nc1ncnc2oc(-c3ccccc3)c(-c3ccccc3)c12)c1ccccc1 [Compound 31, S-2-(5,6-diphenyl-furo[2,3-d]pyrimidin-4-ylamino)-2-phenyl-ethanol] | 101 to 900 nM | – | – | 301 to 999 nM
COc1ccc(-c2c(-c3ccccc3)oc3ncnc(N[C@H](CO)c4ccccc4)c23)cc1 [Compound 35] | 101 to 900 nM | – | – | 100 to 300 nM
COc1ccc(-c2oc3ncnc(N[C@H](CO)c4ccccc4)c3c2-c2ccc(OC)cc2)cc1 [Compound 36] | – | 60 to 100 nM | – | –
CC(=O)Nc1ccc(-c2c(-c3ccccc3)oc3ncnc(N[C@H](CO)c4ccccc4)c23)cc1 [Compound 37] | – | 60 to 100 nM | – | 100 to 300 nM
CC(=O)Nc1cccc(-c2c(-c3ccccc3)oc3ncnc(N[C@H](CO)c4ccccc4)c23)c1 [Compound 38] | 101 to 900 nM | – | – | 100 to 300 nM
OC[C@@H](Nc1ncnc2oc(-c3ccccc3)c(-c3ccco3)c12)c1ccccc1 [Compound 40] | 101 to 900 nM | – | – | 301 to 999 nM
OC[C@@H](Nc1ncnc2oc(-c3ccccc3)c(-c3ccoc3)c12)c1ccccc1 [Compound 41] | 101 to 900 nM | – | – | 100 to 300 nM
CC(=O)OC[C@@H](Nc1ncnc2oc(-c3ccccc3)c(Br)c12)c1ccccc1 [Compound 44] | – | – | – | 301 to 999 nM
OC[C@@H](Nc1ncnc2oc(-c3ccccc3)c(Cl)c12)c1ccccc1 [Compound 45] | 101 to 900 nM | – | – | –
COC(=O)[C@@H](Nc1ncnc2oc(-c3ccccc3)c(-c3ccccc3)c12)c1ccccc1 [Compound 46] | – | – | – | 301 to 999 nM
CCOC(=O)[C@@H](Nc1ncnc2oc(-c3ccccc3)c(-c3ccccc3)c12)c1ccccc1 [Compound 47] | – | – | – | 301 to 999 nM
O=C(O)[C@@H](Nc1ncnc2oc(-c3ccccc3)c(-c3ccccc3)c12)c1ccccc1 [Compound 50] | – | < 59 nM | – | –
O=C(O)[C@@H](Nc1ncnc2oc(-c3ccccc3)c(Br)c12)c1ccccc1 [Compound 53] | – | < 59 nM | – | –
CC[C@@H](Nc1ncnc2oc(-c3ccccc3)c(-c3ccccc3)c12)c1ccccc1 [Compound 54] | – | – | – | 301 to 999 nM
CC[C@@H](Nc1ncnc2oc(-c3ccccc3)cc12)c1ccccc1 [Compound 56] | – | – | – | 301 to 999 nM
O=C(O)/C=C\C(=O)N1CCc2c(sc3ncnc(N[C@H](CO)c4ccccc4)c23)C1 [Compound 61] | 101 to 900 nM | – | – | –
C=CS(=O)(=O)N1CCc2c(sc3ncnc(N[C@H](CO)c4ccccc4)c23)C1 [Compound 63] | – | 60 to 100 nM | 500 to 2500 nM | 100 to 300 nM
CCOC(=O)/C=C/C(=O)N1CCc2c(sc3ncnc(N[C@H](CO)c4ccccc4)c23)C1 [Compound 68] | – | – | – | 1 to 99 nM
CN(C)C/C=C/C(=O)N1CCc2c(sc3ncnc(N[C@H](CO[Si](C)(C)C(C)(C)C)c4ccccc4)c23)C1 [Compound 186] | – | 60 to 100 nM | – | 301 to 999 nM

Second part, led by results:

IC50 (GST-EGFR-KD^WT; range given in mixed units) | IC50 (GST-EGFR-KD^WT) | IC50 (GST-EGFR-KD^L858R/T790M) | SMILES | IC50 (HCC827 cells)
– | < 59 nM | 500 to 2500 nM | C=CC(=O)N1CCc2c(sc3ncnc(N[C@H](C)c4ccccc4)c23)C1 [Compound 64] | 1 to 99 nM
– | < 59 nM | 500 to 2500 nM | O=C(/C=C/CN1CCCCC1)N1CCc2c(sc3ncnc(N[C@H](CO)c4ccccc4)c23)C1 [Compound 65] | 1 to 99 nM
– | 60 to 100 nM | – | C=CC(=O)Nc1ccc(-c2c(-c3ccccc3)oc3ncnc(N[C@H](CO)c4ccccc4)c23)cc1 [Compound 118, S—N-{4-[4-(2-Hydroxy-1-phenyl-ethylamino)-6-phenyl-furo[2,3-d]pyrimidin-5-yl]-phenyl}-acrylamide] | 301 to 999 nM
101 to 900 nM | – | – | C=CC(=O)Nc1ccc(-c2nc3c(N[C@H](CO)c4ccccc4)ncnc3o2)cc1 [Compound 154] | –
101 to 900 nM | – | – | CN(C)C/C=C/C(=O)N1CCc2c(sc3ncnc(N[C@H](CO)Cc4ccccc4)c23)C1 [Compound 192] | 1 to 99 nM
– | < 59 nM | – | CN(C)C/C=C/C(=O)N1CCc2c(sc3ncnc(N[C@H](CCO)c4ccccc4)c23)C1 [Compound 194] | 1 to 99 nM
– | < 59 nM | – | CCN(CC)C/C=C/C(=O)N1CCc2c(sc3ncnc(N[C@H](CCO)c4ccccc4)c23)C1 [Compound 199] | –
101 to 900 nM | – | – | CC(C)NC/C=C/C(=O)N1CCc2c(sc3ncnc(N[C@H](C)c4ccccc4)c23)C1 [Compound 204] | 1 to 99 nM
101 to 900 nM | – | – | C[C@@H](Nc1ncnc2sc3c(c12)CCN(C(=O)/C=C/CNc1ccccc1)C3)c1ccccc1 [Compound 206] | 301 to 999 nM
– | < 59 nM | – | C[C@@H](Nc1ncnc2sc3c(c12)CCN(C(=O)/C=C/CN=[N+]=[N-])C3)c1ccccc1 [Compound 208] | 1 to 99 nM
– | < 59 nM | – | C[C@@H](Nc1ncnc2sc3c(c12)CCN(C(=O)/C=C/CN(C)C)C3)c1ccc(Br)cc1 [Compound 209] | 1 to 99 nM
– | < 59 nM | – | C[C@@H](Nc1ncnc2sc3c(c12)CCN(C(=O)/C=C/CNN1CCCCC1)C3)c1ccccc1 [Compound 212] | 1 to 99 nM
– | < 59 nM | – | C[C@@H](Nc1ncnc2sc3c(c12)CCN(C(=O)/C=C/CN(C)CCO)C3)c1ccccc1 [Compound 213] | 1 to 99 nM
– | < 59 nM | – | CC(=O)OC/C=C/C(=O)N1CCc2c(sc3ncnc(N[C@H](C)c4ccccc4)c23)C1 [Compound 214] | 1 to 99 nM
– | < 59 nM | – | CCN(C/C=C/C(=O)N1CCc2c(sc3ncnc(N[C@H](C)c4ccccc4)c23)C1)CCO [Compound 216] | 1 to 99 nM
– | < 59 nM | – | CCC[C@@H](Nc1ncnc2sc3c(c12)CCN(C(=O)/C=C/CN(C)C)C3)c1ccccc1 [Compound 217] | 1 to 99 nM

IC50 (GST-EGFR-KD^WT; range given in mixed units) | IC50 (GST-EGFR-KD^WT) | IC50 (GST-EGFR-KD^L858R/T790M) | SMILES | IC50 (HCC827 cells)
– | < 59 nM | – | CN(C)C/C=C/C(=O)N1CCc2c(sc3ncnc(N[C@H](CCOCc4ccccc4F)c4ccccc4)c23)C1 [Compound 218] | 1 to 99 nM
– | < 59 nM | – | CN(C)C/C=C/C(=O)N1CCc2c(sc3ncnc(N[C@H](COCc4ccc(F)cc4)c4ccccc4)c23)C1 [Compound 219] | 1 to 99 nM
– | 60 to 100 nM | – | C/C=C/C(=O)N1CCc2c(sc3ncnc(N[C@H](COCc4cccc(F)c4)c4ccccc4)c23)C1 [Compound 220] | –
– | < 59 nM | – | CN(C)C/C=C/C(=O)N1CCc2c(sc3ncnc(N[C@H](COCc4ccncc4)c4ccccc4)c23)C1 [Compound 224] | 1 to 99 nM
– | < 59 nM | – | COC[C@@H](Nc1ncnc2sc3c(c12)CCN(C(=O)/C=C/CN(C)C)C3)c1ccccc1 [Compound 229] | 1 to 99 nM
– | 60 to 100 nM | – | CCN(CC)C/C=C/C(=O)N1CCc2c(sc3ncnc(N[C@H](COC)c4ccccc4)c23)C1 [Compound 230] | 1 to 99 nM
– | < 59 nM | – | CN(C)C/C=C/C(=O)N1CCc2c(sc3ncnc(N[C@H](COCc4cccnc4)c4ccccc4)c23)C1 [Compound 231] | 1 to 99 nM
101 to 900 nM | – | – | C=CC(=O)Nc1ccc(-c2c(-c3ccccc3)oc3ncnc(N[C@H](C)c4ccccc4)c23)cc1 [Compound 238] | 1 to 99 nM
101 to 900 nM | – | 10 to 499 nM | C=CC(=O)Nc1cccc(-c2c(-c3ccccc3)oc3ncnc(N[C@H](COC(=O)C=C)c4ccccc4)c23)c1 [Compound 240] | –
101 to 900 nM | – | – | CC#CC(=O)Nc1cccc(-c2c(-c3ccccc3)oc3ncnc(N[C@H](COC)c4ccccc4)c23)c1 [Compound 242] | –
– | 60 to 100 nM | – | C=CC(=O)Nc1cccc(-c2coc3ncnc(N[C@H](CO)c4ccccc4)c23)c1 [Compound 244] | 301 to 999 nM
– | < 59 nM | – | C=CC(=O)Nc1cccc(-c2cc3c(N[C@H](CO)c4ccccc4)ncnc3s2)c1 [Compound 245] | 100 to 300 nM
– | < 59 nM | – | C=CC(=O)Nc1cccc(-c2csc3ncnc(N[C@H](CO)c4ccccc4)c23)c1 [Compound 246] | 1 to 99 nM
101 to 900 nM | – | – | C=CC(=O)Nc1cccc(-c2c(-c3ccccc3)oc3ncnc(N(C)C(COC)c4ccccc4)c23)c1 (stereo not drawn) [Compound 247] | –
– | < 59 nM | – | COCCN(C)C/C=C/C(=O)N1CCc2c(sc3ncnc(N[C@H](CO)c4ccccc4)c23)C1 [Compound 327] | –
